Data from US9416144B2, “Benzoxazine oxazolidinone compound, preparation method and application thereof” (priority 2012, dated 2016).
Values after ≈ are worked out from the molar mass of the structure shown.

Assays:
[1] = test system: Staphylococcus aureus resistant strains (6 strains); assay: In vitro antibacterial activity, MIC by agar double dilution method; type: cell-based; conditions: clinical isolates
Excerpt: (§1) Experimental method: The agar double dilution method (Antimicrob. Agents and Chemother, 40, 1996, 720-726) was used to determine the minimum inhibitory concentration (MIC) of the series of compounds of the invention and the positive control drug linezolid for the test strains. The multipoint inoculation system (Denley A400) was employed to inoculate the bacteria on the agar plate surface with different concentrations of drugs; inoculation amount on each point was about 10^6 CFU/mL. The plates were incubated at 35° C. for 16 hrs before the results were observed. The lowest drug concentration contained in the Petri dish without bacterial growth was used as the minimum inhibitory concentration (MIC value) of the drug fir that strain.
(§2) Test strains: All the test strains were clinically isolated pathogens which were collected from the Nanjing region, and they were re-identified by routine methods before use. 31 strains of the clinically isolated pathogens were chosen, including 6 strains of Enterococcus, 5 Staphylococcus aureus sensitive strains; 5 Staphylococcus epidermidis sensitive strains; 6 Staphylococcus aureus resistant strains; 5 Staphylococcus epidermidis resistant strains; and 4 Streptococcus pneumoniae resistant strains.
(§3) Compounds to be tested were first added 2 ml of DMSO to help them fully dissolved, then added sterile double distilled water to the desired concentration; to all the Petri dish with added drug liquid were added 20 mL MIT medium which was heat-melted to be liquid-like, to make the final drug concentration in the Petri dish to be 64, 32, 16, 8, 4, 2, 1, 0.5, 0.25, 0.125, 0.0625, and 0.031 μg/mL.
(§4) The positive control group was LZ (linezolid, brand name Zyvox, approved by the FDA in 2000 to be firstly sold in the United States, which is the first and also the only one of oxazolidinone antibacterial drugs allowed to enter clinical application).

[2] = test system: Staphylococcus epidermidis resistant strains (5 strains); assay: as above; type: cell-based; conditions: clinical isolates
Excerpt: as §1, §2, §3, §4

[3] = test system: Staphylococcus aureus sensitive strains (5 strains); assay: as above; type: cell-based; conditions: clinical isolates
Excerpt: as §1, §2, §3, §4

[4] = test system: Streptococcus pneumoniae resistant strains (4 strains); assay: as above; type: cell-based; conditions: clinical isolates
Excerpt: as §1, §2, §3, §4

[5] = test system: Staphylococcus epidermidis sensitive strains (5 strains); assay: as above; type: cell-based; conditions: clinical isolates
Excerpt: as §1, §2, §3, §4

Enterococcus (6 strains) = assay: as above; type: cell-based; conditions: clinical isolates, 35° C. 16 hrs
Excerpt: as §1, §2, §3, §4

[6] = test system: LREFA, linezolid-resistant strain of Enterococcus faecium (3 strains); assay: In vitro antibacterial activity on linezolid-resistant strains, MIC in MHB broth, 96-well plate; type: cell-based; conditions: LREFA (3 strains)
Description: (§5) The stock solution of the subject drugs in DMSO was 10 mg/mL. MHA (agar) and MHB (broth) were both prepared according to the manufacturer's requirements.
(§6) Double dilution of drugs: under aseptic operation, 12.8 μL of liquid drug was added into the first well of a 96-well plate, and then added 27.2 μL DMSO and mixed. The 2nd to 12nd wells were all added 20 μL DMSO. 20 μL was taken from the first well to the second well and mixed up. 20 μL was taken from the second well to the third well, which was repeated till the 11st well, from which was taken 20 μL and discarded. The 12nd well only had 20 μL of DMSO as the growth control. Then 180 μL of sterile water was added to each well and mixed up. The drug used as control was prepared by the same method.
(§7) The solutions with different concentrations of antibacterial drugs after the double dilution and DMSO were added into a sterile 96-well plate separately, 10 μL per well, ready for use.
(§8) Single colonies were picked from the MHA plates into 5 ml of sterile saline and mixed up.
(§9) Light transmittance was adjusted to 80% with a spectrophotometer. After being diluted by 1:200 with MHB, 90 μL of such bacteria liquid was added into each of the wells which already had 10 μL of the drug liquid, mixed up, and incubated in a regular biochemical incubator at 35° C. for 20 hrs before the results were read out. At this time, the drug concentration in the 1st to 12nd wells was 32, 16, 8, 4, 2, 1, 0.5, 0.25, 0.125, 0.0625, 0.03125, 0 μg/mL, respectively.
(§10) Two parallel groups were set up for the same diluted concentration of a drug.
(§11) 4) Results Reading and Judgment: Refer to the Standard Recommended by the CLSI, 2010 Edition.
as §4

[7] = test system: S.a. ATCC 29213 (standard strain of Staphylococcus aureus); assay: as above; type: cell-based; conditions: ATCC29213, 35° C. 20 hrs
Description: as §5, §6, §7, §8, §9, §10, §11, §4

[8] = test system: LREFL, linezolid-resistant strain of Enterococcus faecalis (3 strains); assay: as above; type: cell-based; conditions: LREFL (3 strains)
Description: as §5, §6, §7, §8, §9, §10, §11, §4

[9] = test system: LRSE, linezolid-resistant strain of Staphylococcus epidermidis (1 strain); assay: as above; type: cell-based; conditions: LRSE (1 strain)
Description: as §5, §6, §7, §8, §9, §10, §11, §4

[10] = test system: LRSA, linezolid-resistant strain of Staphylococcus aureus (3 strains); assay: as above; type: cell-based; conditions: LRSA (3 strains)
Description: as §5, §6, §7, §8, §9, §10, §11, §4

| SMILES | MIC [1] | MIC [2] | MIC [3] | MIC [4] | MIC [5] | MIC (Enterococcus (6 strains)) | MIC [6] | MIC [7] | MIC [8] | MIC [9] | MIC [10] | melting point |
| --- | --- | --- | --- | --- | --- | --- | --- | --- | --- | --- | --- | --- |
| C[C@@H](O)C(=O)c1ccc(-c2ccc3c(c2)OC[C@H]2[C@H](CO)OC(=O)N32)cn1 [Compound 1, (3R,3aS)-3-(hydroxylmethyl)-7-(6-((R)-2-hydroxylpropionyl)pyridin-3-yl)-3a,4-dihydrobenzo[b]oxazolo[3,4-d][1,4]oxazin-1(3H)-one] | 0.125 to 0.5 µg/mL (≈ 0.338 to 1.35 µM) | 0.125 to 0.5 µg/mL (≈ 0.338 to 1.35 µM) | 0.25 µg/mL (≈ 0.675 µM) | 0.25 to 0.5 µg/mL (≈ 0.675 to 1.35 µM) | 0.125 to 0.5 µg/mL (≈ 0.338 to 1.35 µM) | 1 µg/mL (≈ 2.7 µM) | 4 to 8 µg/mL (≈ 10.8 to 21.6 µM) | 0.5 µg/mL (≈ 1.35 µM) | 8 µg/mL (≈ 21.6 µM) | 4 µg/mL (≈ 10.8 µM) | 8 µg/mL (≈ 21.6 µM) | 164 to 166 °C |
| O=C1O[C@@H](CO)[C@@H]2COc3cc(-c4ccc(Cn5cncn5)nc4)ccc3N12 [Compound 2, (3R,3aS)-7-(6-((1H-1,2,4-triazol-1-yl)methyl)pyridin-3-yl)-3-(hydroxylmethyl)-3a,4-dihydrobenzo[b]oxazolo[3,4-d][1,4]oxazin-1(3H)-one] | 0.5 to 1 µg/mL (≈ 1.32 to 2.64 µM) | 0.5 to 1 µg/mL (≈ 1.32 to 2.64 µM) | 0.5 to 1 µg/mL (≈ 1.32 to 2.64 µM) | 0.5 to 2 µg/mL (≈ 1.32 to 5.27 µM) | 0.5 to 1 µg/mL (≈ 1.32 to 2.64 µM) | 1 to 2 µg/mL (≈ 2.64 to 5.27 µM) | 4 to 8 µg/mL (≈ 10.5 to 21.1 µM) | 0.5 µg/mL (≈ 1.32 µM) | 4 to 8 µg/mL (≈ 10.5 to 21.1 µM) | 4 µg/mL (≈ 10.5 µM) | 8 µg/mL (≈ 21.1 µM) | – |
| N#Cc1ccc(-c2ccc3c(c2)OC[C@H]2[C@H](CO)OC(=O)N32)cn1 [Compound 3, 5-((3R,3aS)-3-(hydroxylmethyl)-1-oxo-1,3,3a,4-tetrahydrobenzo[b]oxazolo[3,4-d][1,4]oxazin-7-yl)picolinonitrile] | 0.125 to 0.25 µg/mL (≈ 0.387 to 0.773 µM) | 0.125 to 0.25 µg/mL (≈ 0.387 to 0.773 µM) | 0.25 to 0.5 µg/mL (≈ 0.773 to 1.55 µM) | 0.25 to 0.5 µg/mL (≈ 0.773 to 1.55 µM) | 0.25 µg/mL (≈ 0.773 µM) | 1 µg/mL (≈ 3.09 µM) | 2 to 4 µg/mL (≈ 6.19 to 12.4 µM) | 0.25 µg/mL (≈ 0.773 µM) | 4 µg/mL (≈ 12.4 µM) | 4 µg/mL (≈ 12.4 µM) | 4 to 8 µg/mL (≈ 12.4 to 24.7 µM) | – |
| O=C1OCCN1c1ccc(-c2ccc3c(c2)OC[C@H]2[C@H](CO)OC(=O)N32)cn1 [Compound 5, (3R,3aS)-3-(hydroxylmethyl)-7-(6-(2-oxazolidino-3-yl)pyridin-3-yl)-3a,4-dihydrobenzo[b]oxazolo[3,4-d][1,4]oxazin-1(3H)-one] | 0.5 to 1 µg/mL (≈ 1.3 to 2.61 µM) | 0.5 to 1 µg/mL (≈ 1.3 to 2.61 µM) | 0.5 to 1 µg/mL (≈ 1.3 to 2.61 µM) | 0.5 to 1 µg/mL (≈ 1.3 to 2.61 µM) | 0.5 to 1 µg/mL (≈ 1.3 to 2.61 µM) | 1 µg/mL (≈ 2.61 µM) | 4 to 8 µg/mL (≈ 10.4 to 20.9 µM) | 0.5 µg/mL (≈ 1.3 µM) | 4 to 8 µg/mL (≈ 10.4 to 20.9 µM) | 2 µg/mL (≈ 5.22 µM) | 4 µg/mL (≈ 10.4 µM) | – |
